Results reported in PubChem BioAssay AID330 (DTP/NCI, 2004).
Values joined by “and” are separate entries in the source; they are usually repeats but may differ in a detail not shown here. Identical values can stand only once. Inconclusive results and toxic doses are left out. Peptide text beside a SMILES is read from it. * marks the point of attachment. Cbz = O=C(OCc1ccccc1)*

Tested on: P388 leukemia ip, CD2F1 mice, survival T/C
Experiment: NCI In Vivo Anticancer Drug Screen. Data for tumor model P388 Leukemia (intraperitoneal) in CD2F1 (CDF1) mice
Settings: endpoint: median survival time, higher = longer survival
How it was run: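 Mice carrying the transplanted tumor received test compound or vehicle. Survival was recorded in each group, and the value is the treated-group measurement divided by that of the vehicle-treated control group.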

[1] = dose: 100.0 mg/kg/injection, schedule: Q01DX009 (ip), vehicle: saline with Tween-80
[2] = dose: 200.0 mg/kg/injection, schedule: Q01DX009 (ip), vehicle: saline with Tween-80
[3] = dose: 100.0 mg/kg/injection, schedule: Q01DX009 (ip), vehicle: Klucel (hydroxypropylcellulose) (HPC)
[4] = dose: 200.0 mg/kg/injection, schedule: Q01DX009 (ip), vehicle: Klucel (hydroxypropylcellulose) (HPC)
[5] = dose: 25.0 mg/kg/injection, schedule: Q04DX003 (ip), vehicle: saline with Tween-80
[6] = dose: 50.0 mg/kg/injection, schedule: Q04DX003 (ip), vehicle: saline with Tween-80
[7] = dose: 50.0 mg/kg/injection, schedule: Q01DX009 (ip), vehicle: Klucel (hydroxypropylcellulose) (HPC)
[8] = dose: 100.0 mg/kg/injection, schedule: Q04DX003 (ip), vehicle: saline with Tween-80
[9] = dose: 50.0 mg/kg/injection, schedule: Q01DX005 (ip), vehicle: Klucel (hydroxypropylcellulose) (HPC)
[10] = dose: 100.0 mg/kg/injection, schedule: Q01DX005 (ip), vehicle: Klucel (hydroxypropylcellulose) (HPC)
[11] = dose: 100.0 mg/kg/injection, schedule: Q04DX002 (ip), vehicle: Klucel (hydroxypropylcellulose) (HPC)

Compound: CC(=O)Nc1ccc(C(F)(F)F)cc1
- T/C (dose: 25.0 mg/kg/injection, schedule: Q01DX009 (ip), vehicle: suspension in saline): 94 % of control
- T/C (dose: 50.0 mg/kg/injection, schedule: Q01DX009 (ip), vehicle: suspension in saline): 94 % of control
- T/C (dose: 100.0 mg/kg/injection, schedule: Q01DX009 (ip), vehicle: suspension in saline): 86 % of control

Compound: O=C(/C(=C(\C(=O)c1ccccc1)c1ccccc1)c1ccccc1)c1ccccc1
- T/C (dose: 50.0 mg/kg/injection, schedule: Q01DX009 (ip), vehicle: saline with Tween-80): 99 % of control
- T/C [1]: 92 % of control
- T/C [2]: 87 % of control
- T/C (dose: 400.0 mg/kg/injection, schedule: Q01DX009 (ip), vehicle: saline with Tween-80): 86 % of control

Compound: Cn1c(C(C)(C)OC(=O)Oc2ccccc2)cnc1[N+](=O)[O-]
- T/C [3]: 96 % of control
- T/C [4]: 100 % of control

Compound: CNC(=O)OCC[N+](C)(C)C
- T/C (dose: 3.12 mg/kg/injection, schedule: Q01DX009 (ip), vehicle: saline): 101 % of control
- T/C (dose: 6.25 mg/kg/injection, schedule: Q01DX009 (ip), vehicle: saline): 101 % of control

Compound: CCCCNc1cc(Nc2ccc(Br)cc2)nc(N)n1
- T/C (dose: 6.25 mg/kg/injection, schedule: Q04DX003 (ip), vehicle: saline with Tween-80): 106 % of control
- T/C (dose: 12.5 mg/kg/injection, schedule: Q04DX003 (ip), vehicle: saline with Tween-80): 99 % of control
- T/C [5]: 106 % of control
- T/C [6]: 100 % of control

Compound: Oc1ccccc1C=Nc1ccc2nc(SC3CCCC3)sc2c1
- T/C [7]: 93 % of control
- T/C [3]: 97 % of control
- T/C [4]: 118 % of control

Compound: CN(C)c1ccc2c(NCCCCCCNc3ccnc4cc(N(C)C)ccc34)ccnc2c1
- T/C (dose: 1.56 mg/kg/injection, schedule: Q01DX009 (ip), vehicle: distilled water + alcohol): 116 % of control
- T/C (dose: 6.25 mg/kg/injection, schedule: Q01DX009 (ip), vehicle: distilled water + alcohol): 120 % of control
- T/C (dose: 12.5 mg/kg/injection, schedule: Q01DX009 (ip), vehicle: distilled water + alcohol): 150 % of control and 152 % of control
- T/C (dose: 25.0 mg/kg/injection, schedule: Q01DX009 (ip), vehicle: distilled water + Tween-80 + alcohol): 174 % of control
- T/C (dose: 50.0 mg/kg/injection, schedule: Q01DX009 (ip), vehicle: distilled water + alcohol): 168 % of control

Compound: CC(NC(=O)OCc1ccccc1)C(=O)NC(CCCN=C(N)N)C(=O)O (stereo not drawn) (Cbz-Ala-Arg-OH; configuration not given here)
- T/C (dose: 50.0 mg/kg/injection, schedule: Q01DX005 (ip), vehicle: saline with Tween-80): 100 % of control
- T/C (dose: 100.0 mg/kg/injection, schedule: Q01DX005 (ip), vehicle: saline with Tween-80): 105 % of control
- T/C (dose: 200.0 mg/kg/injection, schedule: Q01DX005 (ip), vehicle: saline with Tween-80): 108 % of control

Compound: CCCCCCCCCCCCCCCc1cccc(OC)c1C(=O)O
- T/C (dose: 7.5 mg/kg/injection, schedule: Q01DX009 (ip), vehicle: saline with Tween-80): 107 % of control
- T/C (dose: 15.0 mg/kg/injection, schedule: Q01DX009 (ip), vehicle: saline with Tween-80): 113 % of control
- T/C (dose: 30.0 mg/kg/injection, schedule: Q01DX009 (ip), vehicle: saline with Tween-80): 116 % of control

Compound: COc1cc(CNNc2ccc(NC(C)=O)cc2N)ccc1OC(C)=O
- T/C [5]: 94 % of control
- T/C [6]: 91 % of control
- T/C [8]: 86 % of control

Compound: CCC1(CC)C(=O)C(CC)(CC)C1=O
- T/C (dose: 60.0 mg/kg/injection, schedule: Q01DX005 (ip), vehicle: saline with Tween-80): 104 % of control
- T/C (dose: 120.0 mg/kg/injection, schedule: Q01DX005 (ip), vehicle: saline with Tween-80): 110 % of control
- T/C (dose: 240.0 mg/kg/injection, schedule: Q01DX005 (ip), vehicle: saline with Tween-80): 110 % of control

Compound: C=C(C)C1CC2(C)C(C)CC(O)CC2C(OC(=O)/C=C(/C)CC)C1O (stereo not drawn)
- T/C (dose: 12.5 mg/kg/injection, schedule: Q01DX009 (ip), vehicle: Klucel (hydroxypropylcellulose) (HPC)): 97 % of control
- T/C (dose: 25.0 mg/kg/injection, schedule: Q01DX009 (ip), vehicle: Klucel (hydroxypropylcellulose) (HPC)): 98 % of control
- T/C [7]: 97 % of control
- T/C [3]: 97 % of control

Compound: CC1CN1C(=O)c1cc(C(=O)N2CC2C)cc(C(=O)N2CC2C)c1 (stereo not drawn)
- T/C (dose: 6.25 mg/kg/injection, schedule: Q01DX009 (ip), vehicle: saline with Tween-80): 113 % of control

Compound: CCOc1ccccc1N=Nc1c(C)nn(C(=S)SC)c1OCC
- T/C (dose: 30.0 mg/kg/injection, schedule: Q01DX005 (ip), vehicle: Klucel + Tween-80): 91 % of control
- T/C (dose: 60.0 mg/kg/injection, schedule: Q01DX005 (ip), vehicle: Klucel + Tween-80): 88 % of control and 95 % of control
- T/C (dose: 120.0 mg/kg/injection, schedule: Q01DX005 (ip), vehicle: Klucel + Tween-80): 86 % of control

Compound: NC(CCC(=O)O)(C(=O)O)c1ccccc1 (stereo not drawn)
- T/C (dose: 0.19 mg/kg/injection, schedule: Q01DX009 (ip), vehicle: saline): 101 % of control
- T/C (dose: 0.38 mg/kg/injection, schedule: Q01DX009 (ip), vehicle: saline): 104 % of control
- T/C (dose: 0.75 mg/kg/injection, schedule: Q01DX009 (ip), vehicle: saline): 100 % of control
- T/C (dose: 1.5 mg/kg/injection, schedule: Q01DX009 (ip), vehicle: saline with Tween-80): 98 % of control
- T/C (dose: 1.5 mg/kg/injection, schedule: Q01DX009 (ip), vehicle: saline): 109 % of control
- T/C (dose: 3.0 mg/kg/injection, schedule: Q01DX009 (ip), vehicle: saline with Tween-80): 98 % of control
- T/C [1]: 92 % of control
- T/C [2]: 93 % of control

Compound: COC(=O)C(CCCN)NC(=O)c1ccccc1 (stereo not drawn)
- T/C (dose: 50.0 mg/kg/injection, schedule: Q01DX005 (ip), vehicle: saline): 99 % of control
- T/C (dose: 100.0 mg/kg/injection, schedule: Q01DX005 (ip), vehicle: saline): 92 % of control
- T/C (dose: 200.0 mg/kg/injection, schedule: Q01DX005 (ip), vehicle: saline): 90 % of control

Compound: CCN(CC)[Se]c1ccccc1
- T/C (dose: 100.0 mg/kg/injection, schedule: Q04DX002 (ip), vehicle: saline with Tween-80): 101 % of control
- T/C (dose: 200.0 mg/kg/injection, schedule: Q04DX002 (ip), vehicle: saline with Tween-80): 100 % of control
- T/C (dose: 400.0 mg/kg/injection, schedule: Q04DX002 (ip), vehicle: saline with Tween-80): 98 % of control

Compound: O=C(Nc1cccc(C(F)(F)F)c1)Oc1ccc(Cl)cc1C(=O)c1ccccc1
- T/C (dose: 50.0 mg/kg/injection, schedule: Q01DX009 (ip), vehicle: saline): 97 % of control
- T/C (dose: 100.0 mg/kg/injection, schedule: Q01DX009 (ip), vehicle: saline): 92 % of control
- T/C (dose: 200.0 mg/kg/injection, schedule: Q01DX009 (ip), vehicle: saline): 96 % of control

Compound: N#CNC(=Nc1ccccc1)[N](C#N)[Sn]([c]1ccccc1)([c]1ccccc1)[c]1ccccc1
- T/C (dose: 1.56 mg/kg/injection, schedule: Q01DX005 (ip), vehicle: Klucel (hydroxypropylcellulose) (HPC)): 100 % of control
- T/C (dose: 3.12 mg/kg/injection, schedule: Q01DX005 (ip), vehicle: Klucel (hydroxypropylcellulose) (HPC)): 102 % of control
- T/C (dose: 6.25 mg/kg/injection, schedule: Q01DX005 (ip), vehicle: Klucel (hydroxypropylcellulose) (HPC)): 103 % of control and 97 % of control

Compound: C/C(=C\C(=O)c1cccc(F)c1)N1CCN(c2cccc(C(F)(F)F)c2)CC1
- T/C [9]: 93 % of control
- T/C [10]: 94 % of control

Compound: O=c1c2ccccc2n(-c2ccccc2)c2cc(Cl)ccc12
- T/C [9]: 100 % of control
- T/C [10]: 102 % of control
- T/C (dose: 200.0 mg/kg/injection, schedule: Q01DX005 (ip), vehicle: Klucel (hydroxypropylcellulose) (HPC)): 100 % of control

Compound: O=C(NNC(O)C(F)(F)F)c1ccccc1F (stereo not drawn)
- T/C [11]: 99 % of control

Compound: COC(=O)c1cc(=O)n(-c2ccccc2C)c(SC)n1
- T/C [11]: 105 % of control
- T/C (dose: 200.0 mg/kg/injection, schedule: Q04DX002 (ip), vehicle: Klucel (hydroxypropylcellulose) (HPC)): 105 % of control

Compound: CC(CN(C)C)C(/C=C/c1ccc(Cl)cc1)=N\NC(=O)c1ccccc1 (stereo not drawn)
- T/C (dose: 15.0 mg/kg/injection, schedule: Q01DX005 (ip), vehicle: saline): 101 % of control
- T/C (dose: 30.0 mg/kg/injection, schedule: Q01DX005 (ip), vehicle: saline): 100 % of control
- T/C (dose: 60.0 mg/kg/injection, schedule: Q01DX005 (ip), vehicle: saline): 104 % of control and 121 % of control
- T/C (dose: 120.0 mg/kg/injection, schedule: Q01DX005 (ip), vehicle: saline): 114 % of control

Compound: C=CN1C(=O)NC2(CCCCC2)C1=O
- T/C [5]: 100 % of control
- T/C [6]: 100 % of control
- T/C [8]: 90 % of control
